Here are results for 1 compound from US20260191923A1, “COMPOSITIONS” (GIVAUDAN SA, priority 2022, published 2026).

Common to all, as to type: cell-based
Test [1] relates to human gut microbiome. Description: Short term colonic simulation (48 hours colonic fermentation): overall fermentative activity, pH and gas production. As to conditions: pre-digested products, fecal inoculum of a single human donor, triplicate; 0-6 hours; doses of Table 1. An excerpt: (§1) The test products used in these experiments included a red acerola fruit powder containing 20% vitamin C and a green acerola fruit powder containing 34% vitamin C provided by Naturex-Givaudan. Commercial synthetic ascorbic acid and a 55:45 mixture of fructose and glucose served as relevant control groups. The test products contained a fraction of digestible compounds (sugar, for e.g.) that, in vivo, are absorbed in the small intestine following conversion to small molecules by digestive enzymes. […] Stock solutions of test products and controls were prepared and exposed to conditions simulating oral, gastric, and small intestinal passage. Typically, a dialysis procedure is employed to simulate absorption of small molecules in the small intestine, but this step was omitted for these test products, as the dialysis procedure would lead to losses of compounds in acerola (polyphenols) that would reach the colon in vivo and exert an effect on the microbiome. […] Changes in ammonium production were assessed by sampling at the start of incubation and after 48 hours. Analysis of microbial community structure was performed at the start of the incubation and after 48 hours. pH was measured in each reactor at each time point as a single repetition. Gas production was measured in the headspace of the fermentation vessels as a single repetition.

Test [2] concerns human gut microbiome. The experiment in a line: Short term colonic simulation: microbial metabolite (SCFA) production by capillary gas chromatography-FID. Conditions: 48 hours colonic fermentation; acerola 3.5 g/L, sugar control 1.75 g/L, ascorbic acid 1.67 g/L; FIG. 1.
Excerpt: as §1, with “microbiome. A 48 hours colonic fermentation was performed in the presence of test compounds and relevant controls to determine the effect of the test products on the gut microbiome.” for “microbiome.”, “[…] Quantitative analysis” for “Analysis of microbial community structure was performed at the start”, “SCFA” for “incubation and after 48 hours. pH”, “done by means of capillary gas chromatography, coupled with” for “measured in each reactor at each time point as”, “flame ionization detector (FID). […]” for “single repetition. Gas production was measured in the headspace of the fermentation vessels as a single repetition.”

The subject of test [3] is human gut microbiome. Description: Short term colonic simulation: changes in community composition by 16S-targeted Illumina sequencing (heat map, LEfSe, beta diversity). Conditions: after 48 hours; ascorbic acid 1.67 g/L; comparator not stated. An excerpt:
The test products used in these experiments included a red acerola fruit powder containing 20% vitamin C and a green acerola fruit powder containing 34% vitamin C provided by Naturex-Givaudan. Commercial synthetic ascorbic acid and a 55:45 mixture of fructose and glucose served as relevant control groups. The test products contained a fraction of digestible compounds (sugar, for e.g.) that, in vivo, are absorbed in the small intestine following conversion to small molecules by digestive enzymes. […] Stock solutions of test products and controls were prepared and exposed to conditions simulating oral, gastric, and small intestinal passage. […]
Sampling was performed periodically with a syringe through a rubber septum. […] Changes in ammonium production were assessed by sampling at the start of incubation and after 48 hours. […]
The methodology applied involves primers that span 2 hypervariable regions (V3-V4) of the 16S rRNA gene, i.e. primers 341F-785R described in Bekliz et al (Bekliz, M., Pramateftaki, P., Battin, T. J. et al. Viral diversity is linked to bacterial community composition in alpine stream biofilms. ISME COMMUN. 2, 27 (2022). https://doi.org/10.1038/s43705-022-00112-9). […] Read assembly and cleanup was largely derived from the MiSeq SOP described by the Schloss lab. […]

Take `O=C1O[C@H]([C@@H](O)CO)C(O)=C1O` [Ascorbic acid, ascorbic acid]: the pH shift entry in the test with human gut microbiome [1] is on record as “failed to produce a significant shift in pH”. Further, the propionate production result in the test with human gut microbiome [2] is listed as “Each product, except ascorbic acid, stimulated propionate production”. Moreover, the “strongest enrichments (LEfSe), OTUs of the genera/families” value in the test on human gut microbiome [3] is “Bacteroides, Lachnoclostridium, GCA-900066575, Anaerostipes, Agathobacter, Oscillibacter, Alistipes, Lachnospiraceae, Flavonifractor, Coprococcus and Blautia”.
